Counter-ions that a name gives are not always drawn. Like-named read-outs stand apart in the source and are kept apart here.
What was measured:
[1] = Volatility of perfuming compounds in air; format: physicochemical; settings: for Volatility: Table 7, citrus note
[2] = Odor threshold of perfuming compounds in air; settings: Table 7, citrus note
[3] = Log P (n-octanol/water) of perfuming compounds
[4] = Table 8, perfuming compounds having a sweet note
[5] = Table 9, perfuming compounds having a gourmand note
[6] = Table 6, perfuming compounds having a fruity note
[7] = n-octanol/water, perfuming compounds having a fruity note (Table 6)
[8] = Table 10, perfuming compounds having a woody note

Structure (SMILES)	logP (physchem; n-octanol/water)	Volatility (μg/l air) [1, 4]	Volatility (μg/l air) [1, 5]	Log P (n-octanol/water) [3, 5]	Log P (n-octanol/water) [3, 4]	further results
CC(C)=CCCC(C)CCOCC=O (racemic)	4.33					Volatility [1]: 4.70 μg/l air; Odor Threshold [2]: 8.95E−04 μg/l air
C/C=C/C(=O)[C@@H]1[C@@H](C)C=CCC1(C)C (racemic)	4.13	143.53 μg/l air	143.53 μg/l air	4.13		
CCCCCCCC1CCCC(=O)O1 (racemic) [(+−)-6-heptyltetrahydro-2H-pyran-2-one]	3.42	0.90 μg/l air	0.90 μg/l air	3.42	3.42	Volatility (μg/l air) [1, 6]: 0.90 μg/l air
COc1cc(C=O)ccc1O [4-hydroxy-3-methoxybenzaldehyde]	0.72	4.24 μg/l air	4.24 μg/l air	0.72		
C=C(C)C1CC=C(C)CC1 (single isomer, unassigned; (+)) [(+)-LIMONENE]						Odor Threshold [2]: 1.29E−01 μg/l air
CCCCCC1CCCC1=O (racemic) [(+−)-2-pentylcyclopentanone]	3.62	560.22 μg/l air	560.22 μg/l air	3.62	3.62	
CCCC(S)CCOC(C)=O (racemic) [(+−)-3-mercaptohexyl acetate]	2.64					Log P (n-octanol/water) [3, 7]: 2.64
CCOC(=O)C(C)CC (racemic) [(+−)-ethyl 2-methylbutanoate]	2.58					Log P (n-octanol/water) [3, 7]: 2.58
CC(OC=O)C1CCCC(C)(C)C1 (centres unmarked) [1-(3,3-DIMETHYL-1-CYCLOHEXYL)ETHYL FORMATE]	4.01					Odor Threshold [2]: 2.05E−01 μg/l air
CCC(=O)/C=C/C1=C(C)CCCC1(C)C	4.47	15.81 μg/l air	15.81 μg/l air	4.47		
CCCCCC1CCCC(=O)O1 (racemic) [(+−)-6-pentyltetrahydro-2H-pyran-2-one]	2.22	9.61 μg/l air	9.61 μg/l air	2.22	2.22	Volatility (μg/l air) [1, 6]: 9.61 μg/l air
CCCCCCC1CCCC(=O)O1 (centres unmarked) [6-hexyltetrahydro-2H-pyran-2-one]	3	4.64 μg/l air	4.64 μg/l air	3.00	3.00	Volatility (μg/l air) [1, 6]: 4.64 μg/l air
C=C(C)CC(C)OC(=O)C(C)C (racemic)	3.57	9902.98 μg/l air	9902.98 μg/l air	3.57	3.57	
CCCCOC(C)=O [BUTYL ACETATE]	2.11			2.11	2.11	Volatility (μg/l air) [1]: 117207.52 μg/l air
CC1=C[C@H](C)[C@H]2[C@H](CCC(C)(C)[C@H]2O)C1 (racemic)	5.24					Log P (n-octanol/water) [3, 6]: 5.24
COc1cc(C=O)ccc1OC(=O)C(C)C	1.9	1.01 μg/l air	1.01 μg/l air	1.90	1.90	Volatility (μg/l air) [1, 6]: 1.01 μg/l air
CC/C=C\CCOC(=O)OC [(3Z)-hex-3-en-1-yl methyl carbonate]	2.97					Log P (n-octanol/water) [3, 7]: 2.97
CC(=O)CCC1=C(C)CCCC1(C)C	3.99	63.61 μg/l air				Volatility (μg/l air) [1, 8]: 63.61 μg/l air; Log P (n-octanol/water) [3, 8]: 3.99
CCCCCC/C=C/C(=O)OC [methyl (2E)-2-nonenoate]	4.05					Log P (n-octanol/water) [3, 7]: 4.05
CCC(=O)OCc1ccccc1 [BENZYL PROPANOATE]	2.35					Log P (n-octanol/water) [3, 6]: 2.35
CC(=O)OC(c1ccccc1)C(Cl)(Cl)Cl (racemic) [(+−)-2,2,2-TRICHLORO-1-PHENYLETHYL ACETATE]	3.2					Log P (n-octanol/water) [3]: 3.20
C/C=C/c1ccc(OC(C)=O)c(OC)c1 [(E)-2-METHOXY-4-(1-PROPENYL)PHENYL ACETATE]	2.56					Log P (n-octanol/water) ([3]; Table 7, citrus note): 2.56
CCCCC/C=C/CCC=O [(E)-4-DECENAL]						Volatility [1]: 691.34 μg/l air; Odor Threshold [2]: 7.59E−05 μg/l air
C=CCCC(=O)C1=CCCC(C)(C)C1 [1-(5,5-dimethyl-1-cyclohexen-1-yl)-4-penten-1-one]	3.89					Log P (n-octanol/water) [3, 6]: 3.89
C/C=C/C(=O)C1C(C)=CCCC1(C)C (racemic)	3.65				3.65	Volatility (μg/l air) [1, 6]: 113.31 μg/l air; Log P (n-octanol/water) [3, 6]: 3.65; Log P (n-octanol/water) [3, 8]: 3.65
CCCCCC(=O)OCC [ETHYL HEXANOATE]	3.12			3.12	3.12	Log P (n-octanol/water) [3, 7]: 3.12
C=CCCCCCCCCO [9-DECEN-1-OL]	3.7					Log P (n-octanol/water) ([3]; Table 7, citrus note): 3.70
C=CCSSCC=C [DIALLYL DISULFIDE]		5487.52 μg/l air	5487.52 μg/l air	3.30		logP (physchem): 3.3

Reference: patent US11427783B2, “Perfuming compositions” (Firmenich SA, priority 2016, dated 2022)
